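Where inhibition never reached the appropriate level, the endpoint shown equals the highest concentration tested. Otherwise, values were interpolated linearly from a five-concentration, 48-hour dose response in 96-well plates. Abbreviation: GI50, concentration required for 50% inhibition of growth. TGI marks complete inhibition of growth.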
Columns and labels:
Assay in all cases: DTP human tumour cell line panel, 48 h
786-0 renal = test system: 786-0 renal
A498 renal = test system: A498 renal
A549 NSCLC = test system: A549 NSCLC
ACHN renal = test system: ACHN renal
BT-549 breast = test system: BT-549 breast
CAKI-1 renal = test system: CAKI-1 renal
CCRF-CEM leukemia = test system: CCRF-CEM leukemia
COLO 205 colon = test system: COLO 205 colon
DU-145 prostate = test system: DU-145 prostate
EKVX NSCLC = test system: EKVX NSCLC
HCC-2998 colon = test system: HCC-2998 colon
HCT-116 colon = test system: HCT-116 colon
HCT-15 colon = test system: HCT-15 colon
HL-60(TB) leukemia = test system: HL-60(TB) leukemia
HOP-62 NSCLC = test system: HOP-62 NSCLC
HOP-92 NSCLC = test system: HOP-92 NSCLC
HS 578T breast = test system: HS 578T breast
HT29 colon = test system: HT29 colon
IGROV1 ovarian = test system: IGROV1 ovarian
K-562 leukemia = test system: K-562 leukemia
KM12 colon = test system: KM12 colon
LOX IMVI melanoma = test system: LOX IMVI melanoma
M14 melanoma = test system: M14 melanoma
MALME-3M melanoma = test system: MALME-3M melanoma
MCF7 breast = test system: MCF7 breast
MDA-MB-231 breast = test system: MDA-MB-231 breast
MDA-MB-435 = test system: MDA-MB-435
MDA-MB-468 breast = test system: MDA-MB-468 breast
MOLT-4 leukemia = test system: MOLT-4 leukemia
NCI-H226 lung = test system: NCI-H226 lung
NCI-H23 lung = test system: NCI-H23 lung
NCI-H460 lung = test system: NCI-H460 lung
NCI-H522 lung = test system: NCI-H522 lung
NCI/ADR-RES ovarian = test system: NCI/ADR-RES ovarian
OVCAR-3 ovarian = test system: OVCAR-3 ovarian
OVCAR-4 ovarian = test system: OVCAR-4 ovarian
OVCAR-5 ovarian = test system: OVCAR-5 ovarian
OVCAR-8 ovarian = test system: OVCAR-8 ovarian
PC-3 prostate = test system: PC-3 prostate
RPMI-8226 leukemia = test system: RPMI-8226 leukemia
RXF 393 renal = test system: RXF 393 renal
SF-268 CNS = test system: SF-268 CNS
SF-295 CNS = test system: SF-295 CNS
SF-539 CNS = test system: SF-539 CNS
SK-MEL-2 melanoma = test system: SK-MEL-2 melanoma
SK-MEL-28 melanoma = test system: SK-MEL-28 melanoma
SK-MEL-5 melanoma = test system: SK-MEL-5 melanoma
SK-OV-3 ovarian = test system: SK-OV-3 ovarian
SN12C renal = test system: SN12C renal
SNB-19 CNS = test system: SNB-19 CNS
SNB-75 CNS = test system: SNB-75 CNS
SR leukemia = test system: SR leukemia
SW-620 colon = test system: SW-620 colon
T-47D breast = test system: T-47D breast
TK-10 renal = test system: TK-10 renal
U251 CNS = test system: U251 CNS
UACC-257 melanoma = test system: UACC-257 melanoma
UACC-62 melanoma = test system: UACC-62 melanoma
UO-31 renal = test system: UO-31 renal

In the case of `C=C1CCC2C3(C)COC(c4ccc(F)cc4)OC3CCC2(C)C1C/C=C1/C(=O)OCC1O` (configuration not stated), the GI50 (786-0 renal) is reported as 1.74 µM, the TGI (786-0 renal) is reported as 3.15 µM and the GI50 (A498 renal) is reported as 13.7 µM. It also gave a TGI (A498 renal) of 27 µM, a GI50 (A549 NSCLC) of 3.07 µM and a TGI (A549 NSCLC) of 13.1 µM. It also gave a GI50 (ACHN renal) of 1.69 µM, a TGI (ACHN renal) of 3.06 µM and a GI50 (BT-549 breast) of 1.65 µM. It also gave a TGI (BT-549 breast) of 3.19 µM, a GI50 (CAKI-1 renal) of 3.06 µM and a TGI (CAKI-1 renal) of 11.5 µM. The GI50 (CCRF-CEM leukemia) was 1.24 µM, the TGI (CCRF-CEM leukemia) was 5.2 µM and the GI50 (COLO 205 colon) was 1.86 µM. For the same compound, the TGI (COLO 205 colon) was 3.47 µM, the GI50 (DU-145 prostate) was 3.86 µM and the TGI (DU-145 prostate) was 13.8 µM. It also gave a GI50 (EKVX NSCLC) of 4.57 µM, a TGI (EKVX NSCLC) of 17.2 µM and a GI50 (HCC-2998 colon) of 2.67 µM. For the same compound, the TGI (HCC-2998 colon) was 8.69 µM, the GI50 (HCT-116 colon) was 1.42 µM and the TGI (HCT-116 colon) was 2.74 µM. For the same compound, the GI50 (HCT-15 colon) was 1.41 µM, the TGI (HCT-15 colon) was 3.24 µM and the GI50 (HL-60(TB) leukemia) was 1.74 µM. It also gave a TGI (HL-60(TB) leukemia) of 4.93 µM, a GI50 (HOP-62 NSCLC) of 10.7 µM and a TGI (HOP-62 NSCLC) of 22.9 µM. For the same compound, the GI50 (HOP-92 NSCLC) was 2.17 µM, the TGI (HOP-92 NSCLC) was 6.46 µM and the GI50 (HS 578T breast) was 2.7 µM. It also gave a TGI (HS 578T breast) of 9.69 µM, a GI50 (HT29 colon) of 1.78 µM and a TGI (HT29 colon) of 3.85 µM. The GI50 (IGROV1 ovarian) was 2.78 µM, the TGI (IGROV1 ovarian) was 10.1 µM and the GI50 (K-562 leukemia) was 2.09 µM. It also gave a GI50 (KM12 colon) of 2.81 µM, a TGI (KM12 colon) of 7.72 µM and a GI50 (LOX IMVI melanoma) of 1.5 µM. The TGI (LOX IMVI melanoma) was 2.83 µM, the GI50 (M14 melanoma) was 2.2 µM and the TGI (M14 melanoma) was 5.92 µM. The GI50 (MALME-3M melanoma) was 2.06 µM, the TGI (MALME-3M melanoma) was 5.16 µM and the GI50 (MCF7 breast) was 1.1 µM. It also gave a TGI (MCF7 breast) of 2.88 µM, a GI50 (MDA-MB-231 breast) of 1.92 µM and a TGI (MDA-MB-231 breast) of 4.03 µM. The GI50 (MDA-MB-435) was 1.84 µM, the TGI (MDA-MB-435) was 4.48 µM and the GI50 (MDA-MB-468 breast) was 1.67 µM. The TGI (MDA-MB-468 breast) was 3.21 µM, the GI50 (MOLT-4 leukemia) was 2.79 µM and the TGI (MOLT-4 leukemia) was 8.13 µM. The GI50 (NCI-H226 lung) was 1.81 µM, the TGI (NCI-H226 lung) was 3.58 µM and the GI50 (NCI-H23 lung) was 3.08 µM. For the same compound, the TGI (NCI-H23 lung) was 11.5 µM, the GI50 (NCI-H460 lung) was 2.02 µM and the TGI (NCI-H460 lung) was 5.48 µM. It also gave a GI50 (NCI-H522 lung) of 1.45 µM, a TGI (NCI-H522 lung) of 2.91 µM and a GI50 (NCI/ADR-RES ovarian) of 1.67 µM. For the same compound, the TGI (NCI/ADR-RES ovarian) was 3.55 µM, the GI50 (OVCAR-3 ovarian) was 1.83 µM and the TGI (OVCAR-3 ovarian) was 3.6 µM. It also gave a GI50 (OVCAR-4 ovarian) of 2.11 µM, a TGI (OVCAR-4 ovarian) of 5.9 µM and a GI50 (OVCAR-5 ovarian) of 2.01 µM. The TGI (OVCAR-5 ovarian) was 4.9 µM, the GI50 (OVCAR-8 ovarian) was 1.54 µM and the TGI (OVCAR-8 ovarian) was 3.4 µM. For the same compound, the GI50 (PC-3 prostate) was 2.19 µM, the TGI (PC-3 prostate) was 5.92 µM and the GI50 (RPMI-8226 leukemia) was 1.83 µM. The TGI (RPMI-8226 leukemia) was 5.05 µM, the GI50 (RXF 393 renal) was 2.41 µM and the TGI (RXF 393 renal) was 6.54 µM. For the same compound, the GI50 (SF-268 CNS) was 3.53 µM, the TGI (SF-268 CNS) was 14.4 µM and the GI50 (SF-295 CNS) was 1.87 µM. It also gave a TGI (SF-295 CNS) of 4.64 µM, a GI50 (SF-539 CNS) of 1.76 µM and a TGI (SF-539 CNS) of 3.16 µM. It also gave a GI50 (SK-MEL-2 melanoma) of 1.89 µM, a TGI (SK-MEL-2 melanoma) of 3.89 µM and a GI50 (SK-MEL-28 melanoma) of 1.94 µM. The TGI (SK-MEL-28 melanoma) was 4.02 µM, the GI50 (SK-MEL-5 melanoma) was 2.73 µM and the TGI (SK-MEL-5 melanoma) was 8.58 µM. The GI50 (SK-OV-3 ovarian) was 14.4 µM, the TGI (SK-OV-3 ovarian) was 27.8 µM and the GI50 (SN12C renal) was 1.48 µM. For the same compound, the TGI (SN12C renal) was 3.18 µM, the GI50 (SNB-19 CNS) was 4.84 µM and the TGI (SNB-19 CNS) was 16.9 µM. The GI50 (SNB-75 CNS) was 1.58 µM, the TGI (SNB-75 CNS) was 7.57 µM and the GI50 (SR leukemia) was 2.44 µM. For the same compound, the TGI (SR leukemia) was 6.51 µM, the GI50 (SW-620 colon) was 1.25 µM and the TGI (SW-620 colon) was 2.71 µM. For the same compound, the GI50 (T-47D breast) was 2.14 µM, the TGI (T-47D breast) was 9.87 µM and the GI50 (TK-10 renal) was 3.85 µM. For the same compound, the TGI (TK-10 renal) was 14.9 µM, the GI50 (U251 CNS) was 1.66 µM and the TGI (U251 CNS) was 3.09 µM. For the same compound, the GI50 (UACC-257 melanoma) was 2.04 µM, the TGI (UACC-257 melanoma) was 5.28 µM and the GI50 (UACC-62 melanoma) was 1.94 µM. The TGI (UACC-62 melanoma) was 4.8 µM, the GI50 (UO-31 renal) was 1.55 µM and the TGI (UO-31 renal) was 3.67 µM.

Source: PubChem BioAssay (NCI)
